{
  "source": "patent US4068070A",
  "about": "“α-Cyanoamine compounds and a process for producing the same” (Fuji Chemical Industry Co., Ltd., priority 1974, dated 1978)",
  "format_in_all_cases": "in vivo, mongrel adult dogs",
  "key": {"coronary sinus out flow": {"test_system": "coronary sinus out flow", "experiment": "Effects on coronary sinus out flow", "procedure": "(§1) All experiments were made on male and female thoractomized mongrel adult dogs weighing about 10 kg. under anesthesia with pentobarbital sodium. Compounds A, D, E and F were suspended in 0.2% CMC solution, Compound B dissolved in hydrochloric acid solution (pH 6), and Compound C and active placebo being dissolved in physiological saline solution. Animals were administered the drug intravenously on brachiuma with either test compound or active placebo.\n(§2) Arterial blood pressure was measured by pressure transducer (Nippon Koden MPU-0.5) connected with the cannula inserted from exposed carotid artery into aorta. Aortic blood flow was determined by means of electromagnetic flow meter (Nippon Koden MF-5) mounted at the origin of the aorta. Coronary sinus out flow and coronary sinus oxygen tension were assessed by means of electromagnetic flow meter (Nippon Koden MF-5) and P02 macro electrode (Beokmann Moder 160-C), respectively using Morawitz cannulization technique. Heart rate was measured by cardiotachometer (Nippon Koden RT-2) synchronized with systolic blood pressure of aorta."}, "aortic blood flow": {"test_system": "aortic blood flow", "experiment": "Effects on aortic blood flow", "procedure": "as §1, §2"}, "heart rate": {"test_system": "heart rate", "experiment": "Effects on heart rate", "procedure": "as §1, §2"}},
  "data": [
    {"smiles": "COc1ccc(C(C#N)N2CCN(CC(=O)N3CCCC3)CC2)cc1OC", "note": "(stereo not shown) [Compound C]", "values": [
      {"measurement": "Changes(%) of basal values, coronary sinus out flow", "setting": "coronary sinus out flow; 6.0 mg/kg i.v., 30 min", "result": "+14.3%"},
      {"measurement": "Changes(%) of basal values, coronary sinus out flow", "setting": "coronary sinus out flow; 6.0 mg/kg i.v., 40 min", "result": "+7.6%"},
      {"measurement": "Changes(%) of basal values, coronary sinus out flow", "setting": "coronary sinus out flow; 6.0 mg/kg i.v., imm.", "result": "+58.2%"},
      {"measurement": "Changes(%) of basal values, coronary sinus out flow", "setting": "coronary sinus out flow; 20.0 mg/kg i.v., 1 min", "result": "+103.2%"},
      {"measurement": "Changes(%) of basal values, coronary sinus out flow", "setting": "coronary sinus out flow; 20.0 mg/kg i.v., 5 min", "result": "+92.1%"},
      {"measurement": "Changes(%) of basal values, coronary sinus out flow", "setting": "coronary sinus out flow; 20.0 mg/kg i.v., 10 min", "result": "+80.8%"},
      {"measurement": "Changes(%) of basal values, coronary sinus out flow", "setting": "coronary sinus out flow; 20.0 mg/kg i.v., 20 min", "result": "+56.2%"},
      {"measurement": "Changes(%) of basal values, coronary sinus out flow", "setting": "coronary sinus out flow; 20.0 mg/kg i.v., 30 min", "result": "+36.2%"},
      {"measurement": "Changes(%) of basal values, coronary sinus out flow", "setting": "coronary sinus out flow; 20.0 mg/kg i.v., 40 min", "result": "+30.0%"},
      {"measurement": "Changes(%) of basal values, coronary sinus out flow", "setting": "coronary sinus out flow; 20.0 mg/kg i.v., imm.", "result": "+101.9%"},
      {"measurement": "Effects on coronary sinus out flow (in words)", "setting": "coronary sinus out flow; i.v., anesthetized dogs", "result": "a marked increasing effect on coronary sinus out flow, which was proportioned to doses thereof and of long duration"},
      {"measurement": "Changes (%) of basal values, aortic blood flow", "setting": "aortic blood flow; 2.0 mg/kg i.v., 1 min", "result": "+2.3%"},
      {"measurement": "Changes (%) of basal values, aortic blood flow", "setting": "aortic blood flow; 2.0 mg/kg i.v., 5 min", "result": "+0.7%"},
      {"measurement": "Changes (%) of basal values, aortic blood flow", "setting": "aortic blood flow; 2.0 mg/kg i.v., 10 min", "result": -1.5, "unit": "%"},
      {"measurement": "Changes (%) of basal values, aortic blood flow", "setting": "aortic blood flow; 2.0 mg/kg i.v., 20 min", "result": -0.3, "unit": "%"},
      {"measurement": "Changes (%) of basal values, aortic blood flow", "setting": "aortic blood flow; 2.0 mg/kg i.v., 30 min", "result": -0.1, "unit": "%"},
      {"measurement": "Changes (%) of basal values, aortic blood flow", "setting": "aortic blood flow; 2.0 mg/kg i.v., 40 min", "result": 0, "unit": "%"},
      {"measurement": "Changes (%) of basal values, aortic blood flow", "setting": "aortic blood flow; 2.0 mg/kg i.v., imm.", "result": "+1.1%"},
      {"measurement": "Changes (%) of basal values, aortic blood flow", "setting": "aortic blood flow; 6.0 mg/kg i.v., 1 min", "result": "+3.4%"},
      {"measurement": "Changes (%) of basal values, aortic blood flow", "setting": "aortic blood flow; 6.0 mg/kg i.v., 5 min", "result": "+1.1%"},
      {"measurement": "Changes (%) of basal values, aortic blood flow", "setting": "aortic blood flow; 6.0 mg/kg i.v., 10 min", "result": 0, "unit": "%"},
      {"measurement": "Changes (%) of basal values, aortic blood flow", "setting": "aortic blood flow; 6.0 mg/kg i.v., 20 min", "result": -1.0, "unit": "%"},
      {"measurement": "Changes (%) of basal values, aortic blood flow", "setting": "aortic blood flow; 6.0 mg/kg i.v., 30 min", "result": -2.0, "unit": "%"},
      {"measurement": "Changes (%) of basal values, aortic blood flow", "setting": "aortic blood flow; 6.0 mg/kg i.v., 40 min", "result": -1.1, "unit": "%"},
      {"measurement": "Changes (%) of basal values, aortic blood flow", "setting": "aortic blood flow; 6.0 mg/kg i.v., imm.", "result": "+8.5%"},
      {"measurement": "Changes (%) of basal values, aortic blood flow", "setting": "aortic blood flow; 20.0 mg/kg i.v., 1 min", "result": "+6.2%"},
      {"measurement": "Changes (%) of basal values, aortic blood flow", "setting": "aortic blood flow; 20.0 mg/kg i.v., 5 min", "result": "+4.8%"},
      {"measurement": "Changes (%) of basal values, aortic blood flow", "setting": "aortic blood flow; 20.0 mg/kg i.v., 10 min", "result": "+1.3%"},
      {"measurement": "Changes (%) of basal values, aortic blood flow", "setting": "aortic blood flow; 20.0 mg/kg i.v., 20 min", "result": -7.1, "unit": "%"},
      {"measurement": "Changes (%) of basal values, aortic blood flow", "setting": "aortic blood flow; 20.0 mg/kg i.v., 30 min", "result": -11.9, "unit": "%"},
      {"measurement": "Changes (%) of basal values, aortic blood flow", "setting": "aortic blood flow; 20.0 mg/kg i.v., 40 min", "result": -8.3, "unit": "%"},
      {"measurement": "Changes (%) of basal values, aortic blood flow", "setting": "aortic blood flow; 20.0 mg/kg i.v., imm.", "result": "+15.8%"},
      {"measurement": "Effects on aortic blood flow (in words)", "setting": "aortic blood flow; i.v., anesthetized dogs", "result": "an increase in blood flow immediately after administration, followed by a decrease in blood flow"},
      {"measurement": "Changes(%) of basal values, heart rate", "setting": "heart rate; 2.0 mg/kg i.v., 1 min", "result": "+1.1%"},
      {"measurement": "Changes(%) of basal values, heart rate", "setting": "heart rate; 2.0 mg/kg i.v., 5 min", "result": "+0.3%"},
      {"measurement": "Changes(%) of basal values, heart rate", "setting": "heart rate; 2.0 mg/kg i.v., 10 min", "result": -0.2, "unit": "%"},
      {"measurement": "Changes(%) of basal values, heart rate", "setting": "heart rate; 2.0 mg/kg i.v., 20 min", "result": 0, "unit": "%"},
      {"measurement": "Changes(%) of basal values, heart rate", "setting": "heart rate; 2.0 mg/kg i.v., 30 min", "result": 0, "unit": "%"},
      {"measurement": "Changes(%) of basal values, heart rate", "setting": "heart rate; 2.0 mg/kg i.v., 40 min", "result": 0, "unit": "%"},
      {"measurement": "Changes(%) of basal values, heart rate", "setting": "heart rate; 2.0 mg/kg i.v., imm.", "result": -2.8, "unit": "%"},
      {"measurement": "Changes(%) of basal values, heart rate", "setting": "heart rate; 6.0 mg/kg i.v., 1 min", "result": "+5.1%"},
      {"measurement": "Changes(%) of basal values, heart rate", "setting": "heart rate; 6.0 mg/kg i.v., 5 min", "result": "+1.3%"},
      {"measurement": "Changes(%) of basal values, heart rate", "setting": "heart rate; 6.0 mg/kg i.v., 10 min", "result": -0.3, "unit": "%"},
      {"measurement": "Changes(%) of basal values, heart rate", "setting": "heart rate; 6.0 mg/kg i.v., 20 min", "result": -1.0, "unit": "%"},
      {"measurement": "Changes(%) of basal values, heart rate", "setting": "heart rate; 6.0 mg/kg i.v., 30 min", "result": 0, "unit": "%"},
      {"measurement": "Changes(%) of basal values, heart rate", "setting": "heart rate; 6.0 mg/kg i.v., 40 min", "result": 0, "unit": "%"},
      {"measurement": "Changes(%) of basal values, heart rate", "setting": "heart rate; 6.0 mg/kg i.v., imm.", "result": -5.3, "unit": "%"},
      {"measurement": "Changes(%) of basal values, heart rate", "setting": "heart rate; 20.0 mg/kg i.v., 1 min", "result": "+0.8%"},
      {"measurement": "Changes(%) of basal values, heart rate", "setting": "heart rate; 20.0 mg/kg i.v., 5 min", "result": "+1.6%"},
      {"measurement": "Changes(%) of basal values, heart rate", "setting": "heart rate; 20.0 mg/kg i.v., 10 min", "result": -1.0, "unit": "%"},
      {"measurement": "Changes(%) of basal values, heart rate", "setting": "heart rate; 20.0 mg/kg i.v., 20 min", "result": -1.4, "unit": "%"},
      {"measurement": "Changes(%) of basal values, heart rate", "setting": "heart rate; 20.0 mg/kg i.v., 30 min", "result": -28, "unit": "%"},
      {"measurement": "Changes(%) of basal values, heart rate", "setting": "heart rate; 20.0 mg/kg i.v., 40 min", "result": -2.0, "unit": "%"},
      {"measurement": "Changes(%) of basal values, heart rate", "setting": "heart rate; 20.0 mg/kg i.v., imm.", "result": -25.6, "unit": "%"},
      {"measurement": "Effects on heart rate (in words)", "setting": "heart rate; i.v., anesthetized dogs", "result": "a slight negative chronotropic effect"}
    ]}
  ]
}
